# System: T. bisselliella antenna
# Experiment: Coupled gas chromatographic-electroantennographic detection (GC-EAD)
# Design: species or system Tineola bisselliella
# Settings: male and gravid female T. bisselliella antenna; 5 pelt-min of squirrel pelt volatile extract
# Protocol: Samples of animal pelt (150 cm^2) were aerated for one week in a cylindrical Pyrex glass chamber. A water-aspirator was used to draw charcoal-filtered, humidified air at 2 L/min through the chamber and a glass column (14 cm×13 mm O. D.) filled with Porapak Q. Volatiles captured on Porapak Q were eluted with 5 ml of redistilled pentane and the eluent concentrated to 2 ml by distillation in a 30 cm Dufton column, adjusting the volatile extract so that 2 μl equalled 5 pelt-min of volatile collection. Aliquots of 2.5 pelt-min equivalents of Porapak Q-captured volatile extracts were analysed by coupled gas chromatographic-electroantennographic detection (GC-EAD) (28) (FIG. 2).
# FIG. 2 illustrates flame ionization detector (FID) and electroantennographic detector (EAD ♂: male T. bisselliella antenna; EAD ♀: gravid female T. bisselliella antenna) responses to 5 pelt-min of squirrel pelt volatile extract. Chromatography: Hewlett Packard (HP) 5890A gas chromatograph equipped with a fused silica column (30 m×0.25 mm ID) coated with DB-5; linear flow velocity of carrier gas: 35 cm/sec; injector and FID detector temperature: 240° C.; temperature program: 1 min at 50° C., 20° C./min to 70° C. then 7.5° C./min to 280° C. (J & W Scientific, Folsom, Calif. 95630). EAD-active compounds were analyzed by GC-mass spectrometry (MS) in full scan electron impact (EI) and chemical ionization (isobutane) (CI) modes, using a Varian Saturn II Ion Trap GC-MS and a HP 5985B GC-MS. Antennally-active compounds were identified as follows: 1. hexanal (20.0); 2. heptanal (35.0); 3. octanal (55.0); 4. nonanal (80.0); 5. decanal (20.0); 6. dodecanal (4.0); 7. tridecanal (6.0); 8. tetradecanal (5.0); 9. pentadecanal (0.8); 10. hexadecanal (1.0); 11. heptadecanal (0.7); 12. octadecanal (0.1); 13. heptanol (10.0); 14. nonanol (10.0); 15. decanol (12.0); 16. undecanol (200.0); 17. dodecanol (10.0); 18. tridecanol (70.0); 19. tetradecanol (3.0); 20. pentadecanol (2.0); 21. hexadecanol (0.3); 22. heptadecanol (0.5); 23. octadecanol (0.1); 24. tetradecane (20.0); 25. pentadecane (100.0); 26. hexadecane (100.0); 27. eicosane (20.0); 28. uneicosane (0.7); 29.2-undecanal (4.0); 30. E2-nonenal (9.0); 31. E2-decenal (11.0); 32. geranylacetone (1.0). Numbers in brackets refer to nanogram quantities present in 15 pelt-min of aeration of dried, untanned animal pelt (150 cm^2).
# The bodies of two hundred 24-48 hour old virgin male T. bisselliella were extracted for 15 min in methanol.
# FIG. 6 illustrates flame ionization detector (FID) and electroantennographic detection (EAD: male T. bisselliella antenna) responses to one male equivalent of male T. bisselliella body extract. EAD-active compounds 1-3 were identified by GC-mass spectrometry as 1. hexadecanoic acid methyl ester; 2. (Z)-9-hexadecenoic acid methyl ester; and 3. octadecanoic acid methyl ester. […] Chromatography: Hewlett Packard (HP) 5890A gas chromatograph equipped with a fused silica column (30 m×0.32 mm ID) coated with DB-23 (J & W Scientific, Folsom, Calif. 95630); linear flow velocity of carrier gas: 35 cm/sec; injector and FID detector temperature: 240° C.; temperature program: 1 min at 50° C., 10° C./min to 200° C. EAD-active compounds were identified by GC-mass spectrometry (MS) in full scan electron impact (EI) mode using a Varian Saturn II Ion Trap GC-MS.
# Terminal abdominal segments with pheromone glands of one-hundred 12-48 hour-old virgin females were severed and extracted for 5-15 min in hexane.
# FIG. 10 illustrates flame ionization detector (FID) and electroantennographic detector (EAD: male T. bisselliella antenna) responses to one female equivalent of female T. bisselliella pheromone gland extract. EAD-active compounds 1-3 were identified as 1. (E,Z)-2,13:octadecadienol (E2,Z13-18:OH) and 2. (E,Z)-2,13:octadecadienal (E2,Z13-18:Ald). […]
row,Structure (SMILES),electroantennographic detector (EAD) response to components of squirrel pelt volatile extract
1,CCCCCCCCCCCCCO [tridecanol],Antennally-active
2,CCCCCCCCCCCCCCCC [hexadecane],Antennally-active
3,CC(=O)CC/C=C(\C)CCC=C(C)C [geranylacetone],Antennally-active
4,CCCCCCCCCCCCCCCCO [hexadecanol],Antennally-active
5,CCCCCCCCCCCCCCCCCCO [octadecanol],Antennally-active
6,CCCCCCCCCC=O [decanal],Antennally-active
7,CCCCCCCCCCCC=O [dodecanal],Antennally-active
8,CCCCCCC/C=C/C=O [E2-decenal],Antennally-active
9,CCCCCCCCCO [nonanol],Antennally-active
10,CCCCCCCCCCCO [undecanol],Antennally-active
11,CCCCCCCCCCCCCCC=O [pentadecanal],Antennally-active
12,CCCCCCCC=O [octanal],Antennally-active
13,CCCCCCCCCCCCCCO [tetradecanol],Antennally-active
14,CCCCCC/C=C/C=O [E2-nonenal],Antennally-active
15,CCCCCCCO [heptanol],Antennally-active
16,CCCCCCCCCCCCCCCO [pentadecanol],Antennally-active

row,Structure (SMILES),electroantennographic detector (EAD) response to components of squirrel pelt volatile extract
1,CCCCCCCCCCCCCCCCCCCC [eicosane],Antennally-active
2,CCCCCCC=O [heptanal],Antennally-active
3,CCCCCCCCCCCCCCCCCC=O [octadecanal],Antennally-active
4,CCCCCCCCCCCCCCCC=O [hexadecanal],Antennally-active
5,CCCCCCCCCCCCCCCCCCCCC [uneicosane],Antennally-active
6,CCCCCCCCCC(C)=O [2-undecanal],Antennally-active
7,CCCCCCCCCCCCO [dodecanol],Antennally-active
8,CCCCCCCCCCCCCCC [pentadecane],Antennally-active
9,CCCCCCCCCCO [decanol],Antennally-active
10,CCCCCCCCC=O [nonanal],Antennally-active
11,CCCCCCCCCCCCC=O [tridecanal],Antennally-active
12,CCCCCCCCCCCCCCCCCO [heptadecanol],Antennally-active
13,CCCCCCCCCCCCCC [tetradecane],Antennally-active
14,CCCCCC=O [hexanal],Antennally-active
15,CCCCCCCCCCCCCC=O [tetradecanal],Antennally-active
16,CCCCCCCCCCCCCCCCC=O [heptadecanal],Antennally-active

# Same assay, conditions: male antenna, one female equivalent
row,Structure (SMILES),EAD response to components of female T. bisselliella pheromone gland extract
1,"CCCC/C=C\CCCCCCCCC/C=C/C=O [(E,Z)-2,13:octadecadienal]",EAD-active
2,"CCCC/C=C\CCCCCCCCC/C=C/CO [(E,Z)-2,13:octadecadienol]",EAD-active

# Same assay, conditions: male antenna, one male equivalent; similar responses with female antennae
row,Structure (SMILES),EAD response to components of male T. bisselliella body extract
1,CCCCCCCCCCCCCCCCCC(=O)OC [octadecanoic acid methyl ester],EAD-active
2,CCCCCC/C=C\CCCCCCCC(=O)OC [(Z)-9-hexadecenoic acid methyl ester],EAD-active
3,CCCCCCCCCCCCCCCC(=O)OC [hexadecanoic acid methyl ester],EAD-active

# System: T. bisselliella
# Experiment: Arena bioassay: captures of moths on sticky traps baited with test or control stimuli
# Type: in vivo, Tineola bisselliella
# Settings: Exps. 29-31; 16:Ester 480 ng plus Z9-16:Ester 840 ng tested together
# Protocol: Tactic responses of T. bisselliella to volatile stimuli from larval habitat were assessed in a closed cylindrical Plexiglas container (125 cm diameter, 60 cm height). Thin cardboard discs (10 cm diameter) coated with Tanglefoot on the upper side were placed on the arena floor 80 cm apart from each other. Platforms suspended above the centre of the coated discs supported randomly assigned test or control stimuli. Control stimuli consisted of cardboard silhouettes visually resembling test stimuli. Per experiment 10 replicates with 25 adult moths each were employed. Moths were released during the scotophase from a Petri dish in the centre of the arena after 30-min of acclimation. After 12 hours of experimental time, moths captured on sticky discs (FIG. 1) were recorded as responders and statistically analysed.
row,Structure (SMILES),"trap captures, attraction by synthetic male pheromone components"
1,CCCCCC/C=C\CCCCCCCC(=O)OC [(Z)-9-hexadecenoic acid methyl ester],attracted both male and virgin female T. bisselliella
2,CCCCCCCCCCCCCCCC(=O)OC [hexadecanoic acid methyl ester],attracted both male and virgin female T. bisselliella

# Same assay, conditions: Exps. 34-37; tested together in various ratios
row,Structure (SMILES),"trap captures of males, attraction by synthetic female pheromone components"
1,"CCCC/C=C\CCCCCCCCC/C=C/C=O [(E,Z)-2,13:octadecadienal]",attracted male T. bisselliella
2,"CCCC/C=C\CCCCCCCCC/C=C/CO [(E,Z)-2,13:octadecadienol]",attracted male T. bisselliella

# Same assay, conditions: geranylacetone (44 ng) and nonanal (3.5 μg) tested together, equivalent quantities; female or male moths
row,Structure (SMILES),trap captures versus dried muskrat pelt
1,CC(=O)CC/C=C(\C)CCC=C(C)C [geranylacetone],more attractive than natural (muskrat) pelt
2,CCCCCCCCC=O [nonanal],more attractive than natural (muskrat) pelt

# System: T. bisselliella
# Experiment: not given
# Settings: literature refs 16, 17; cited from earlier work
row,Structure (SMILES),attractiveness as reported sex pheromone components
1,"CCCCCCCCCCCCCCC/C=C/C=O [E2-octadecenal, reference compound]",only moderately attractive
2,"CCCC/C=C\CCCCCCCCC/C=C/C=O [(E,Z)-2,13:octadecadienal]",only moderately attractive
